Assays:
[1] = system: oxazolone-induced colitis; experiment: Oxazolone-induced colitis; assay type: in vivo, SJL/J male mice; conditions: 30 mg/kg intraperitoneally, day 0 until day 12; FIG. 2A, 2B
Experimental: Oxazolone-induced colitis is a TH2-mediated process that closely resembles ulcerative colitis and is responsive to anti-IL4 therapy ((Strober W. et al (2002) Annu. Rev. Immunol. 20: 495, Boirivant M. et al. (1998) J. Ex. Med. 188: 1929). Oxazolone colitis is induced as described (Fuss I. J. et al. (2002) J. Immunol. 168: 900). Briefly, mice are pre-sensitized by epicutaneous application of 1% oxazolone (4-ethoxymethylene-2-phenyl-2oxazolin-5-one, Sigma) in 100% EtOH (200 μL) on day 0, followed by intrarectal administration of 0.75% oxazolone in 50% EtOH (100 μL) to anesthetized SJL/J male mice on day 5 through a 3.5 F catheter inserted 4 cm proximal to the anal verge. Mice are divided in two treatment groups and injected i.p. twice a day with either PBS or a compound of the invention. Injections are initiated at day 0 and are continued through day 12. Disease progression is evaluated by monitoring body weight and survival.
A study was carried out using the protocol described above for oxazolone-induced colitis. […] Disease progression was evaluated until day 15 (10 days after intrarectal administration) by monitoring survival rates and body weight. When following the above-described protocol, disease severity as measured by body weight drop was maximal at day 11 (6 days after intrarectal challenge), although animals started dying on day 9.

[2] = target: T1, D5 (h) (Homo sapiens, UniProt P21918); experiment: Receptor binding screen, [^3H]SCH 23390; conditions: 10 uM Concentration of Compound I-1-Z; read-out: Mean Value, percent inhibition of control specific binding: D5 (h)
T1 construct: expressed in transfected cells; host or cells: GH4 cells
T1 sequence (P21918 whole entry): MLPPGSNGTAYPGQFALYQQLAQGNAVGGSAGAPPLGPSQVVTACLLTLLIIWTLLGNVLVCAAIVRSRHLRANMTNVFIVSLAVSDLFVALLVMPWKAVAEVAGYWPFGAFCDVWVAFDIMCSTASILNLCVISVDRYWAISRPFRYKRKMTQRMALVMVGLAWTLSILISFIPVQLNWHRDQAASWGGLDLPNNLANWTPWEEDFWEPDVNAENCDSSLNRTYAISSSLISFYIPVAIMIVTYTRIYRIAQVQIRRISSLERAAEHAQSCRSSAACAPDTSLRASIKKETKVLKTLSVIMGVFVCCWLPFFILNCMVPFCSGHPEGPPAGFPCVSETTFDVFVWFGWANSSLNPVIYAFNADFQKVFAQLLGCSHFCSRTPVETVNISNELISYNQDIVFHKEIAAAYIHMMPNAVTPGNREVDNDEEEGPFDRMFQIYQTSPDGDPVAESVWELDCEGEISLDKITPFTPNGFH

[3] = target: T2, rat lung SSAO (Rattus norvegicus, UniProt O08590); experiment: ED50 for rat lung SSAO after oral administration; assay type: in vivo, Sprague Dawley rats; conditions: lungs excised 1, 3, 6 or 24 h later, FIG. 11, read-out: ED50 for inhibition of rat lung SSAO activity
T2 construct: rat lung or human umbilical cord homogenates were prepared by chopping the freshly removed tissue; from tissue; host or cells: rat lung homogenate (1000 g supernatant)
T2 sequence (O08590 whole entry): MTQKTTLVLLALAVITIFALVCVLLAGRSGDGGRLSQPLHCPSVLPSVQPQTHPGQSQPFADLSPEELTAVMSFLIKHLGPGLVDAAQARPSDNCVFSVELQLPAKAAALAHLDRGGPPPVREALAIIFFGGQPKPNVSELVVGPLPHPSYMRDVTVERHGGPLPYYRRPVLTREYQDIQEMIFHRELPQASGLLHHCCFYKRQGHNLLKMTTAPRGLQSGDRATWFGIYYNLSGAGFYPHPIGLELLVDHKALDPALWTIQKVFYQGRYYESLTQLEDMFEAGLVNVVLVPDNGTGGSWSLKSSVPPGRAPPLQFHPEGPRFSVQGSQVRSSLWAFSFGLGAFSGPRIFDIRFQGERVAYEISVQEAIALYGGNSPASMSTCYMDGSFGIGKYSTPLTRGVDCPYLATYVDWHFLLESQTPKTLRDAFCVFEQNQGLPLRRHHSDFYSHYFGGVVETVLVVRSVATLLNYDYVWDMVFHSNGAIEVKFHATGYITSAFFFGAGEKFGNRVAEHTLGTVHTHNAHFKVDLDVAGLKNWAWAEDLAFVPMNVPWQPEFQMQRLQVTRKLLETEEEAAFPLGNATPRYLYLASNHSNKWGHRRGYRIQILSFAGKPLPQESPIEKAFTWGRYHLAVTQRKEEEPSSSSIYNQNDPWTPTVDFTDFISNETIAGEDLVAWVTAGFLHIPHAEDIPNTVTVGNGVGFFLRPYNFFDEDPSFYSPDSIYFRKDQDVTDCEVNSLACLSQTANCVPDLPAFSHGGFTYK
Experimental: Groups of five Sprague Dawley rats were orally administered the indicated doses of compound I-1-Z. At 1, 3, 6 or 24 h later, the animals were sacrificed, lungs excised and SSAO activity in lung homogenates determined. Results are presented as percent inhibition of SSAO activity relative to animals that were administered PBS.

[4] = target: T3, ETA (h) (Homo sapiens, UniProt P25101); experiment: Receptor binding screen, [^125I]endothelin-1; conditions: 10 uM Concentration of Compound I-1-Z; read-out: Mean Value, percent inhibition of control specific binding: ETA (h)
T3 construct: expressed in transfected cells; host or cells: CHO cells
T3 sequence (P25101 21-427): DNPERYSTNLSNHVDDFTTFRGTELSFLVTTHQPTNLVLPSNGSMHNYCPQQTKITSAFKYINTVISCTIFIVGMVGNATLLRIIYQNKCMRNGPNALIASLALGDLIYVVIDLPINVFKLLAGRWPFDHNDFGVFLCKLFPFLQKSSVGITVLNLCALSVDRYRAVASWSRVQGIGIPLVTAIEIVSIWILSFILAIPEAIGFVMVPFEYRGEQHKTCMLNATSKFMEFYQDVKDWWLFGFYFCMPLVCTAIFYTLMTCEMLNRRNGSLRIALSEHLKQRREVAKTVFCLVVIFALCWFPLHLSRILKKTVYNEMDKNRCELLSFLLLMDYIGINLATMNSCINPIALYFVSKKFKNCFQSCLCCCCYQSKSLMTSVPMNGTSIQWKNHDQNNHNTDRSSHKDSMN

[5] = target: T4, A2A (h) (Homo sapiens, UniProt P29274); experiment: Receptor binding screen, [^3H]CGS 21680; conditions: 10 uM Concentration of Compound I-1-Z; read-out: Mean Value, percent inhibition of control specific binding: A2A (h)
T4 construct: expressed in transfected cells; host or cells: HEK-293 cells
T4 sequence (P29274 whole entry): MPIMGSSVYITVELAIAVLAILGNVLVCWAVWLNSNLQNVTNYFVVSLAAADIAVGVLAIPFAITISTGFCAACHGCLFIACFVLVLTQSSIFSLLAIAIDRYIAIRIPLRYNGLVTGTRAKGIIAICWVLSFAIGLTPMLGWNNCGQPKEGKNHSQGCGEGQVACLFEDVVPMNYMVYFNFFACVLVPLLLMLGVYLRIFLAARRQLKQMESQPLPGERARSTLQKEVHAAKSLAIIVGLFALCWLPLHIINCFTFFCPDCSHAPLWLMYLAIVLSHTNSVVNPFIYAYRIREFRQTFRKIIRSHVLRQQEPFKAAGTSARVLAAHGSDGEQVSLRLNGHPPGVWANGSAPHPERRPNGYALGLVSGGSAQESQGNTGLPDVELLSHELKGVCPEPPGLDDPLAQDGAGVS

[6] = target: T5, NK2 (h) (Homo sapiens, UniProt P21452); experiment: Receptor binding screen, [^125I]NKA; conditions: 10 uM Concentration of Compound I-1-Z; read-out: Mean Value, percent inhibition of control specific binding: NK2 (h)
T5 construct: expressed in transfected cells; host or cells: CHO cells
T5 sequence (P21452 whole entry): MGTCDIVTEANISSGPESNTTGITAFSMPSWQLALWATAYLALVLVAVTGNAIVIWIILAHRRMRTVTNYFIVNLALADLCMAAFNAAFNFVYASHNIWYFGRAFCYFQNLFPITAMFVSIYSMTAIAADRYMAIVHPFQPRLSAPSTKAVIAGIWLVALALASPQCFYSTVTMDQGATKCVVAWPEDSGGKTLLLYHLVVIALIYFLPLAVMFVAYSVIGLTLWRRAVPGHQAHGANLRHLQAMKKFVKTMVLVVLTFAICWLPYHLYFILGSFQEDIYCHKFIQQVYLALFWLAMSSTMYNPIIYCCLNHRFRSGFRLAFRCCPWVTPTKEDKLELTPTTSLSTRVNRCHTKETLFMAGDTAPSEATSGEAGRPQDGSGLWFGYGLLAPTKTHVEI

[7] = system: P2Y; experiment: Receptor binding screen, [^35S]dATPαS; set-up: species or system rat; conditions: 10 uM Concentration of Compound I-1-Z
[8] = system: TNF-α (h); experiment: Receptor binding screen, [^125I]TNF-α, U-937 cells; set-up: species or system human; conditions: 10 uM Concentration of Compound I-1-Z
[9] = target: T6, MT1 (h) (Homo sapiens, UniProt P48039); experiment: Receptor binding screen, [^125I]iodomelatonin; conditions: 10 uM Concentration of Compound I-1-Z; read-out: Mean Value, percent inhibition of control specific binding: MT1 (h)
T6 construct: expressed in transfected cells; host or cells: CHO cells
T6 sequence (P48039 whole entry): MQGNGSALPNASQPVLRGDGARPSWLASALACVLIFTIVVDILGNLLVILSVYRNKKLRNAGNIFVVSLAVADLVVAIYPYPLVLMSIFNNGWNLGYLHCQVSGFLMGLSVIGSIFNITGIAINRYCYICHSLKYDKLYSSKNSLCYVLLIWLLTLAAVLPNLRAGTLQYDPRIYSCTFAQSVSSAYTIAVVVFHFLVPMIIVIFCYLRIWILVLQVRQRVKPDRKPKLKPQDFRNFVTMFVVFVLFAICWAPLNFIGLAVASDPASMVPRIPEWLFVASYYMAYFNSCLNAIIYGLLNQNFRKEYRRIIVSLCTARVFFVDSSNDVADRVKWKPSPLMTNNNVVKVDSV

[10] = target: T7, MC4 (h) (Homo sapiens, UniProt P32245); experiment: Receptor binding screen, [^125I]NDP-α-MSH; conditions: 10 uM Concentration of Compound I-1-Z; read-out: Mean Value, percent inhibition of control specific binding: MC4 (h)
T7 construct: expressed in transfected cells; host or cells: CHO cells
T7 sequence (P32245 whole entry): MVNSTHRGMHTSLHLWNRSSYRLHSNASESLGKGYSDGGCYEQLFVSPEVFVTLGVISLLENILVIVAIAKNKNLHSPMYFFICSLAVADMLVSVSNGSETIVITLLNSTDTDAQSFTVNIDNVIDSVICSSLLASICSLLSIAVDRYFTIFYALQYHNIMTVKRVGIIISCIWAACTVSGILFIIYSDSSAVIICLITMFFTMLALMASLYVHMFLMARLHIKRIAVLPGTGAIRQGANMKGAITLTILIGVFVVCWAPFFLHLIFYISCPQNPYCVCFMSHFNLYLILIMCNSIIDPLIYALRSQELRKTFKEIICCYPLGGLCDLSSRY

[11] = target: T8, D4.4 (h) (Homo sapiens, UniProt P21917); experiment: Receptor binding screen, [^3H]spiperone; conditions: 10 uM Concentration of Compound I-1-Z; read-out: Mean Value, percent inhibition of control specific binding: D4.4 (h)
T8 construct: expressed in transfected cells; host or cells: CHO cells
T8 sequence (P21917 whole entry): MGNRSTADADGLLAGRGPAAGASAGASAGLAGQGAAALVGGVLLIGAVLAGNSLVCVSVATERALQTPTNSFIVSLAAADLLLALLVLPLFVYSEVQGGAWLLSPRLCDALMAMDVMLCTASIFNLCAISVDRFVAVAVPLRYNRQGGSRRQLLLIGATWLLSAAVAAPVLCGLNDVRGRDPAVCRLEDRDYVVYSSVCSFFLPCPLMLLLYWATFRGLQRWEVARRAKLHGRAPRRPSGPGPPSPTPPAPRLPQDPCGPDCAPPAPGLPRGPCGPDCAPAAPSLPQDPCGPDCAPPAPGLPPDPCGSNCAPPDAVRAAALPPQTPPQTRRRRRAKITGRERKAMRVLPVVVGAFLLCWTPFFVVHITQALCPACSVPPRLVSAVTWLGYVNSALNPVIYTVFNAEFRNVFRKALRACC

[12] = target: T9, D1 (h) (Homo sapiens, UniProt P21728); experiment: Receptor binding screen, [^3H]SCH 23390; conditions: 10 uM Concentration of Compound I-1-Z; read-out: Mean Value, percent inhibition of control specific binding: D1 (h)
T9 construct: expressed in transfected cells; host or cells: CHO cells
T9 sequence (P21728 whole entry): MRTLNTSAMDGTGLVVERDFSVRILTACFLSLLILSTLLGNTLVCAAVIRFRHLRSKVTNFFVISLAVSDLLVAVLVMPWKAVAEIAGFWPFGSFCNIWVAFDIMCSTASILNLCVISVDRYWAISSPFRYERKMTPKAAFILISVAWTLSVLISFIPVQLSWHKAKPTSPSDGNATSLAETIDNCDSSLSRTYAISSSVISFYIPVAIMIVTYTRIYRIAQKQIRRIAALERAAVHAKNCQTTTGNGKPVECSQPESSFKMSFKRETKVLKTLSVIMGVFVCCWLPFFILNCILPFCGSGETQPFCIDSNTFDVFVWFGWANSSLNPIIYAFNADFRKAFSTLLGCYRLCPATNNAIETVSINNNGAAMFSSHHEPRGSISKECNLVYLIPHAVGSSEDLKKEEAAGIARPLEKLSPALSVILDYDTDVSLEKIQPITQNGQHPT

[13] = system: PDGF; experiment: Receptor binding screen, [^125I]PDGF BB, Balb/c 3T3 cells; conditions: 10 uM Concentration of Compound I-1-Z
[14] = target: T10, 5-HT2A (h) (Homo sapiens, UniProt P28223); experiment: Receptor binding screen, [^3H]ketanserin; conditions: 10 uM Concentration of Compound I-1-Z; read-out: Mean Value, percent inhibition of control specific binding: 5-HT2A (h)
T10 construct: expressed in transfected cells; host or cells: HEK-293 cells
T10 sequence (P28223 whole entry): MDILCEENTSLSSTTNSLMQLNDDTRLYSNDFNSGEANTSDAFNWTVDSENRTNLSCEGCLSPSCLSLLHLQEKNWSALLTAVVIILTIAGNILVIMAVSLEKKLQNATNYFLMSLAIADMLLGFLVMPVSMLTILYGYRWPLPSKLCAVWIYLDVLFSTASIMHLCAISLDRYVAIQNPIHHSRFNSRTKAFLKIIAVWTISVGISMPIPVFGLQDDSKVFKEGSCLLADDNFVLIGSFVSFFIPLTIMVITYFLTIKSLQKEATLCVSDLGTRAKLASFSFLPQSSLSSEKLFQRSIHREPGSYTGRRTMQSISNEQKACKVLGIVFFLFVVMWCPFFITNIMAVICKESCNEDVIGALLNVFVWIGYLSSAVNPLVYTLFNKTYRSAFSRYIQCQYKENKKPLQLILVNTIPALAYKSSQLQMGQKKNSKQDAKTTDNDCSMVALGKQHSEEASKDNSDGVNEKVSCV

[15] = system: LPS-induced lung inflammation; experiment: LPS-induced pulmonary inflammation in rats; assay type: in vivo, Sprague Dawley rats; conditions: FIG. 14
Experimental: LPS-induced pulmonary inflammation in rats is a widely used model of airway inflammation ([…] et al. (2002) J. Pharmacol. Exp. Ther. 302:127). For the experiment described here, groups of Sprague-Dawley female rats (180-200 g) were orally dosed with either a compound of the invention (1 or 10 mg/kg), or with vehicle 1 h before the LPS challenge. Animals were placed in a plexiglass chamber and LPS at 100 μg/ml was nebulized for ten minutes. The nebulizer was turned off for ten minutes, then the chamber was evacuated for a further ten minutes. The animals remained in the chamber throughout this 30 minute cycle. Animals were then returned to their cages for the remainder of the experiment. Four hours after exposure to LPS animals were sacrificed and lungs excised. Lungs were washed with three cycles of 3 ml RPMI 1640 medium and the lavage fluid combined. Cells were pelleted by centrifugation and washed in the same medium. Total cell counts were performed using a hemacytometer. Differential cell counts were conducted on Cytospin-prepared slides stained with Diff-Quick stain. Standard morphological criteria were used to define mononuclear and neutrophilic cells. Using the above protocol, an experiment to assess the effects of compound I-1-Z was carried out. Groups of four female Sprague Dawley rats were orally administered PBS, compound I-1-Z at the indicated doses, or dexamethasone at 3 mg/kg. […]

SMILES	survival rates and body weight loss compared with the vehicle group [1]	inhibition at 10 µM [2] [%]	ED50 [3] [mg/kg]	inhibition at 10 µM [4] [%]	inhibition at 10 µM [5] [%]	inhibition at 10 µM [6] [%]	Mean Value, percent inhibition of control specific binding: P2Y [7] [%]	Mean Value, percent inhibition of control specific binding: TNF-α (h) [8] [%]	inhibition at 10 µM [9] [%]	inhibition at 10 µM [10] [%]	inhibition at 10 µM [11] [%]	inhibition at 10 µM [12] [%]	Mean Value, percent inhibition of control specific binding: PDGF [13] [%]	inhibition at 10 µM [14] [%]	LPS-induced lung inflammation ([15]; 1 mg/kg orally before nebulized LPS)	LPS-induced lung inflammation ([15]; 10 mg/kg orally before nebulized LPS)
NC/C(F)=C\Cc1cc(F)cc(C(F)(F)F)c1 [II-1-E, (E)-2-Fluoro-4-(3-fluoro-5-trifluoromethylphenyl)-but-2-enylamine]	improved survival rates and body weight loss															
COc1ccc(C/C(=C/F)CN)cc1.Cl [Compound I-1-Z, (Z)-3-Fluoro-2-(4-methoxybenzyl)-allylamine hydrochloride]		-10	0.1 to 1	8	13	3	−1	−6	0	8	2	-2	−14	-4	effective in reducing LPS-induced lung inflammation	effective in reducing LPS-induced lung inflammation

Reference: patent US20110269811A1, “INHIBITORS OF SEMICARBAZIDE-SENSITIVE AMINE OXIDASE (SSAO) AND VAP-1 MEDIATED ADHESION USEFUL FOR TREATMENT AND PREVENTION OF DISEASES” (priority 2006, published 2011)
